In patent publication US9617212B2, “Isoindolin-1-ones as macrophage migration inhibitory factor (MIF) inhibitors” (Controlled Chemicals, Inc., priority 2013, dated 2017):

biological target: T1, Human MIF (MIF tautomerase) (Homo sapiens, UniProt P14174); assay: MIF Tautomerase Inhibitory Assay with L-Dopachrome Methyl Ester; assay type: biochemical; settings: IC50, relative potency class, MIF tautomerase inhibition; L-dopachrome methyl ester substrate, pH 7.34, no pre-incubation
T1 construct: purchased ProSpec
T1 sequence (P14174 2-115 limits assumed): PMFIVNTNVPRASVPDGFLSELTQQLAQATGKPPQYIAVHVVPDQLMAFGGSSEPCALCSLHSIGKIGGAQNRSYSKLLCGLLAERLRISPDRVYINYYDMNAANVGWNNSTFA
Procedure: MIF Tautomerase Inhibitory Assay with L-Dopachrome Methyl Ester
Assay Method (pH 7.34, 0.017-0.033% DMSO, 0.034% EtOH): A fresh stock solution of L-dopachrome methyl ester in MeOH was prepared at 55-65 mM through oxidation of L-3,4-dihydroxyphenylalanine methyl ester hydrochloride with sodium periodate according to the procedure described in WO9729635A1. MeOH was removed from 0.5 mL of the L-dopachrome methyl ester/MeOH solution (55-65 mM) under a stream of argon and the residue taken up in appropriate amount of water to prepare a substrate solution (7-10 mM). Active Human MIF (from ProSpec) ([…]) was dissolved in 675 μL 0.1% bovine serum albumin (BSA) in water, and the resultant MIF solution (1 volume) mixed with 55 volumes of Na2HPO4 buffer (50 mM, pH 7.34) to form a 265 ng/mL MIF working solution. MIF working solution (280 μL) or a no-MIF working solution (prepared by mixing 0.1% BSA (1 volume) with the aforementioned Na2HPO4 buffer (55 volumes)) was transferred to wells in a column of 8 wells on a 96-well plate in a Plate Reader (SPECTRAmax Plus 384, Molecular Devices), and 5 μL of H2O/DMSO (99/1) containing no inhibitor or an inhibitor (whose concentration was verified by HPLC). Without pre-mixing or pre-incubation, 10 μL freshly prepared L-dopachrome methyl ester/H2O solution (7-10 mM) was added to each well with a multi-pipet. The assay samples were mixed immediately by sucking up and expelling the contents of the wells three times with a multi-pipet. The absorbance (A1) at 475 nm was then recorded for each sample every 2 s for 3 min. After 5-6 min, the samples were monitored again for 3 min with a reading every two seconds at 475 nm (A2). It can be shown that when [substrate]<<Km, plots of Ln(A1−A2) versus time are linear with slopes m (Eq 1). IC50 values were estimated from Eq 2-5, the inhibitor concentration [I] in the assay mixture and values of m in the presence (mi), absence (mo) of the inhibitor, the value of m observed for the non-MIF blank (mn), the MIF concentration (e), and the specificity constant for the MIF catalyzed reaction (kcat/Km). Ln(A1−A2)=−mt (Eq 1) F=(mi−mn)/(mo−mn) (Eq 2) Wherein mo−mn=ekcat/Km (Eq 3) and mi−mn=(ekcat/Km)[…] (Eq 4) IC50=[I]F/(1−F) (Eq 5)
The compounds listed in Table 1, provided herein, were prepared via procedures identical or similar to those described in the Examples 1-85. The listed compounds were >95% pure by HPLC. Each listed compound yielded a mass spectrum consistent with its structure. Concentrations of MIF tautomerase inhibitors used in the assay were verified by HPLC and the extinction coefficients of the inhibitors. The designated relative potency of MIF tautomerase inhibitors is based on the IC50 as determined by the method described in Biochemical Assay as follows: A, IC50<1 μM; B, 1 μM≦IC50<5 μM; C, 5 μM≦IC50<10 μM; D, 10 μM≦IC50<50 μM; E, 50 μM≦IC50<200 μM.

| SMILES | IC50 |
| --- | --- |
| CC(OC(=O)Cc1ccccc1)[C@H]1CC[C@H](CN2Cc3cc(F)c(O)cc3C2=O)CC1 (stereo partly drawn) | < 1000 nM |

same assay, conditions: relative potency class, MIF tautomerase inhibition; L-dopachrome methyl ester substrate, pH 7.34, no pre-incubation; read-out: IC50

| SMILES | IC50 |
| --- | --- |
| CNC(=O)[C@H](Cc1ccccc1)NC(C)C1CCC(CN2Cc3ccc(O)c(F)c3C2=O)CC1 (stereo partly drawn) [drawing 100] | < 1000 nM |
| CC(N[C@H](C)C(=O)O)C1CCC(CN2Cc3ccc(O)c(F)c3C2=O)CC1 (stereo partly drawn) | < 1000 nM |
| CCCNC(C)[C@H]1CC[C@H](CN2Cc3ccc(O)cc3C2=O)CC1 (stereo partly drawn) | 1000 to 5000 nM |
| CC(C)[C@@H](CO)NC(C)[C@H]1CC[C@H](CN2Cc3ccc(O)cc3C2=O)CC1 (stereo partly drawn) [drawing 150] | 1000 to 5000 nM |
| CC(N[C@@H](C)C(=O)O)[C@H]1CC[C@H](CN2Cc3ccc(O)c(F)c3C2=O)CC1 (single isomer, unassigned) | < 1000 nM |
| COC(=O)CCNC(C)C1CCC(CN2Cc3ccc(O)c(F)c3C2=O)CC1 (stereo not drawn) | < 1000 nM |
| NC[C@H]1CC[C@H](CN2Cc3ccc(O)c(F)c3C2=O)CC1 | 1000 to 5000 nM |
| O=C1c2cc(O)ccc2CN1[C@@H](CO)C1CCCCC1 | 10000 to 50000 nM |
| CC(Oc1cccc(F)c1)[C@H]1CC[C@H](CN2Cc3cc(F)c(O)cc3C2=O)CC1 (stereo partly drawn) | < 1000 nM |
| O=C1c2cc(O)ccc2CN1Cc1ccccc1 | 10000 to 50000 nM |
| O=C1c2cc(O)ccc2CN1C[C@H]1CC[C@H](CO)CC1 | 1000 to 5000 nM |
| O=C(OC1CCCC1)C1CCC(CCN2Cc3ccc(O)cc3C2=O)CC1 (stereo not drawn) [drawing 138] | 1000 to 5000 nM |
| CC(C)OC(=O)[C@H]1CC[C@H](CN2Cc3ccc(O)cc3C2=O)CC1 | < 1000 nM |
| C[C@@H](O)[C@H]1CC[C@H](CN2Cc3ccc(O)c(F)c3C2=O)CC1 | < 1000 nM |
| O=C1c2cc(O)ccc2CN1CCc1ccc(F)cc1 | 10000 to 50000 nM |
| O=C1c2cc(O)ccc2CN1C[C@H]1CC[C@H](C(O)C2CCCCC2)CC1 (stereo partly drawn) | < 1000 nM |
| COC(=O)[C@@H](CO)NC(C)[C@H]1CC[C@H](CN2Cc3ccc(O)c(F)c3C2=O)CC1 (single isomer, unassigned) | < 1000 nM |
| COC(=O)[C@@H](C)NC(C)C1CCC(CN2Cc3ccc(O)c(F)c3C2=O)CC1 (stereo partly drawn) [drawing 113] | < 1000 nM |
| O=C1c2cc(O)ccc2CN1C1CCCCC1 | 5000 to 10000 nM |
| O=C1c2cc(O)ccc2CN1C[C@H]1CC[C@H](C(=O)OC2CCCC2)CC1 | 5000 to 10000 nM |
| CNC(=O)[C@H]1CC[C@H](CN2Cc3ccc(O)cc3C2=O)CC1 | 1000 to 5000 nM |
| O=C1c2cc(O)ccc2CN1C[C@H]1CC[C@H](COc2ccccc2)CC1 | < 1000 nM |
| CC(N)[C@H]1CC[C@H](CN2Cc3ccc(O)c(F)c3C2=O)CC1 (stereo partly drawn) | < 1000 nM |
| COc1cccc(OC[C@H]2CC[C@H](CN3Cc4ccc(O)cc4C3=O)CC2)c1 | < 1000 nM |

| SMILES | IC50 |
| --- | --- |
| CC(C)C[C@@H](NC(C)C1CCC(CN2Cc3ccc(O)c(F)c3C2=O)CC1)C(=O)O (stereo partly drawn) [drawing 104] | < 1000 nM |
| CC(CC1CCCCC1)N1Cc2ccc(O)cc2C1=O (stereo not drawn) | 10000 to 50000 nM |
| O=C1c2cc(O)ccc2CN1CCc1cccc(F)c1 | 5000 to 10000 nM |
| CC(Oc1cccc(F)c1)[C@H]1CC[C@H](CN2Cc3cc(F)c(O)cc3C2=O)CC1 (mixture of isomers) [drawing 63] | < 1000 nM |
| CCC(C(=O)OC(C)[C@H]1CC[C@H](CN2Cc3cc(F)c(O)cc3C2=O)CC1)c1ccccc1 (stereo partly drawn) | < 1000 nM |
| CCC(C)OC(=O)[C@H]1CC[C@H](CN2Cc3ccc(O)cc3C2=O)CC1 (stereo partly drawn) | 1000 to 5000 nM |
| O=C1c2cc(O)ccc2CN1C[C@H]1CC[C@H](C(O)CC2CCCCC2)CC1 (stereo partly drawn) | < 1000 nM |
| CC[C@@H](C(=O)OC(C)[C@H]1CC[C@H](CN2Cc3ccc(O)c(F)c3C2=O)CC1)c1ccccc1 (stereo partly drawn) | < 1000 nM |
| CNC(=O)CCNC(C)C1CCC(CN2Cc3ccc(O)c(F)c3C2=O)CC1 (stereo not drawn) | < 1000 nM |
| CC(=O)[C@H]1CC[C@H](CN2Cc3ccc(O)c(F)c3C2=O)CC1 | < 1000 nM |
| O=C1c2cc(O)ccc2CN1C[C@H]1CC[C@H](COc2ccccc2F)CC1 | < 1000 nM |
| CC(N[C@@H](C(=O)O)C(C)C)C1CCC(CN2Cc3ccc(O)c(F)c3C2=O)CC1 (stereo partly drawn) | < 1000 nM |
| COC(=O)[C@@H](C)NC(C)C1CCC(CN2Cc3ccc(O)c(F)c3C2=O)CC1 (stereo partly drawn) [drawing 112] | < 1000 nM |
| CC(NCCC(=O)O)C1CCC(CN2Cc3ccc(O)c(F)c3C2=O)CC1 (stereo not drawn) | < 1000 nM |
| CCCC(Oc1cccc(F)c1)[C@H]1CC[C@H](CN2Cc3ccc(O)cc3C2=O)CC1 (stereo partly drawn) | < 1000 nM |
| CC(Oc1cccc(OCCN2CCOCC2)c1)[C@H]1CC[C@H](CN2Cc3ccc(O)c(F)c3C2=O)CC1 (stereo partly drawn) | < 1000 nM |
| O=C1OCc2ccc(OC[C@H]3CC[C@H](CN4Cc5ccc(O)cc5C4=O)CC3)cc21 | < 1000 nM |
| CC(N)[C@H]1CC[C@H](CN2Cc3cc(F)c(O)c(F)c3C2=O)CC1 (stereo partly drawn) | 1000 to 5000 nM |
| O=C1c2cc(O)ccc2CN1C[C@H]1CC[C@H](CN2CCOCC2)CC1 | 1000 to 5000 nM |
| CC(C)CNC(C)[C@H]1CC[C@H](CN2Cc3ccc(O)cc3C2=O)CC1 (stereo partly drawn) | 1000 to 5000 nM |
| O=C1c2cc(O)ccc2CN1CCc1ccccc1 | 5000 to 10000 nM |
| COc1cccc(OC(C)[C@H]2CC[C@H](CN3Cc4cc(F)c(O)c(F)c4C3=O)CC2)c1 (stereo partly drawn) | < 1000 nM |
| CC1CCC(N2Cc3ccc(O)cc3C2=O)CC1 (stereo not drawn) | 1000 to 5000 nM |
| O=C1c2cc(O)ccc2CN1C[C@H]1CC[C@H](COc2cccc(O)c2)CC1 | < 1000 nM |

| SMILES | IC50 |
| --- | --- |
| CC(=O)N(C)CCOc1cccc(OC[C@H]2CC[C@H](CN3Cc4ccc(O)c(F)c4C3=O)CC2)c1 | < 1000 nM |
| CC(C)NC(C)[C@H]1CC[C@H](CN2Cc3ccc(O)cc3C2=O)CC1 (stereo partly drawn) | 1000 to 5000 nM |
| O=C1c2cc(O)ccc2CN1CCc1cccc(O)c1 | 1000 to 5000 nM |
| CC(Oc1cccc(F)c1)[C@H]1CC[C@H](CN2Cc3ccc(O)c(F)c3C2=O)CC1 (stereo partly drawn) | < 1000 nM |
| CNCCOc1cccc(OC[C@H]2CC[C@H](CN3Cc4ccc(O)c(F)c4C3=O)CC2)c1 | < 1000 nM |
| O=C1c2cc(O)ccc2CN1C[C@H]1CC[C@H](COc2cccc(F)c2)CC1 | < 1000 nM |
| COC(=O)[C@H]1CC[C@H](CN2Cc3ccc(O)cc3C2=O)CC1 | < 1000 nM |
| COc1cccc(OC(C)[C@H]2CC[C@H](CN3Cc4ccc(O)c(F)c4C3=O)CC2)c1 (stereo partly drawn) | < 1000 nM |
| COC(=O)[C@H](NC(C)[C@H]1CC[C@H](CN2Cc3ccc(O)c(F)c3C2=O)CC1)C(C)C (single isomer, unassigned) | < 1000 nM |
| O=C1c2cc(O)ccc2CN1[C@H](CO)C1CCCCC1 | 10000 to 50000 nM |
| CC(N[C@H](C)C(=O)O)[C@H]1CC[C@H](CN2Cc3ccc(O)c(F)c3C2=O)CC1 (single isomer, unassigned) | < 1000 nM |
| CC(=O)NC(C)[C@H]1CC[C@H](CN2Cc3ccc(O)c(F)c3C2=O)CC1 (stereo partly drawn) | < 1000 nM |
| CC(C)[C@@H](CO)NC(C)[C@H]1CC[C@H](CN2Cc3ccc(O)cc3C2=O)CC1 (stereo partly drawn) [drawing 110] | < 1000 nM |
| CC(NCC(N)=O)[C@H]1CC[C@H](CN2Cc3ccc(O)c(F)c3C2=O)CC1 (stereo partly drawn) | < 1000 nM |
| C[C@@H](OC(=O)CCC(=O)O)[C@H]1CC[C@H](CN2Cc3ccc(O)c(F)c3C2=O)CC1 (single isomer, unassigned) | < 1000 nM |
| O=C1c2cc(O)ccc2CN1C[C@H]1CC[C@H](COC2CCCCC2)CC1 | 1000 to 5000 nM |
| O=C1c2cc(O)ccc2CN1[C@H]1CC[C@H](O)CC1 | 10000 to 50000 nM |
| CC(N)[C@H]1CC[C@H](CN2Cc3cc(Cl)c(O)c(F)c3C2=O)CC1 (stereo partly drawn) | 1000 to 5000 nM |
| O=C1c2cc(O)ccc2CN1CC1CCCCC1 | 1000 to 5000 nM |
| CCC(Oc1cccc(F)c1)[C@H]1CC[C@H](CN2Cc3ccc(O)cc3C2=O)CC1 (stereo partly drawn) | < 1000 nM |
| CC(Oc1cccc(OCCN)c1)[C@H]1CC[C@H](CN2Cc3ccc(O)c(F)c3C2=O)CC1 (stereo partly drawn) | < 1000 nM |
| CCOC(=O)CN1Cc2ccc(O)cc2C1=O | 50000 to 200000 nM |
| CC(Oc1cccc(OCCN(C)C)c1)[C@H]1CC[C@H](CN2Cc3ccc(O)c(F)c3C2=O)CC1 (stereo partly drawn) | < 1000 nM |
